Key:
duck salad = assay: Test B flood test duck salad; type: in vivo, Heteranthera limosa
Method in brief: (§1)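 Each value is a visual injury score relative to controls, with 10 meaning complete control and 0 no effect. Evaluation took place twelve to sixteen days after the 2-leaf-stage plants were treated and kept in the greenhouse.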

rice = assay: Test B flood test rice; type: in vivo, Oryza sativa
Method in brief: as §1

velvetleaf = assay: Test B pre/postemergence velvetleaf; type: in vivo, Abutilon theophrasti
Method in brief: (§2)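 Test chemicals in a non-phytotoxic solvent mixture with surfactant were sprayed preemergence onto planted seeds and postemergence onto plants 2 to 18 cm tall (1- to 4-leaf stage). After twelve to sixteen days in a greenhouse, injury was visually rated against untreated controls from 0 (no effect) to 10 (complete control).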

soybean = assay: Test B pre/postemergence soybean; type: in vivo, Glycine max
Method in brief: as §2

blackgrass = assay: Test B pre/postemergence blackgrass; type: in vivo, Alopecurus myosuroides
Method in brief: as §2

corn = assay: Test B pre/postemergence corn; type: in vivo, Zea mays
Method in brief: as §2

sugar beet = assay: Test B pre/postemergence sugar beet; type: in vivo, Beta vulgaris
Method in brief: as §2

morningglory = assay: Test B pre/postemergence morningglory; type: in vivo, Ipomoea hederacea
Method in brief: as §2

smallflower flatsedge = assay: Test B flood test smallflower flatsedge; type: in vivo, Cyperus difformis
Method in brief: as §1

rape = assay: Test B pre/postemergence rape; type: in vivo, Brassica napus
Method in brief: as §2

surinam grass = assay: Test B pre/postemergence surinam grass; type: in vivo, Brachiaria decumbens
Method in brief: as §2

giant foxtail = assay: Test B pre/postemergence giant foxtail; type: in vivo, Setaria faberii
Method in brief: as §2

bamyardgrass = assay: Test B flood test barnyardgrass; type: in vivo, Echinochloa crus-galli
Method in brief: as §1

bedstraw = assay: Test B pre/postemergence bedstraw; type: in vivo, Galium aparine
Method in brief: as §2

pigweed = assay: Test B pre/postemergence pigweed; type: in vivo, Amaranthus retroflexus
Method in brief: as §2

purple nutsedge = assay: Test B pre/postemergence purple nutsedge; type: in vivo, Cyperus rotundus
Method in brief: as §2

[1] = Rate 62 g/ha, headed Pre-emergence (flood test species), scale 0 to 10 (0 no effect, 10 complete control)
[2] = Rate 125 g/ha, Pre-emergence, flood test species, scale 0 to 10 where 0 is no effect and 10 is complete control
[3] = Rate 250 g/ha, Pre-emergence, flood-test species, scale 0 to 10, 0 is no effect, 10 is complete control
[4] = Rate 500 g/ha, Pre-emergence, flood test species, scale 0 to 10 (0 no effect, 10 complete control)
[5] = Postemergence, Rate 125 g/ha, scale 0 to 10, 0 is no effect, 10 is complete control
[6] = Preemergence, Rate 62 g/ha, scale of 0 to 10 where 0 is no effect and 10 is complete control
[7] = Preemergence, Rate 250 g/ha, scale of 0 to 10 where 0 is no effect and 10 is complete control
[8] = Preemergence, Rate 500 g/ha, scale of 0 to 10 where 0 is no effect and 10 is complete control
[9] = Rate 62 g/ha, Postemergence, scale 0 to 10 (0 no effect, 10 complete control)
[10] = Rate 500 g/ha, Postemergence, scale 0 to 10, 0 no effect, 10 complete control
[11] = Rate 250 g/ha, Postemergence, scale of 0 to 10 where 0 is no effect and 10 is complete control

Cc1c(-n2c(=O)on(C(=O)N(c3ccc(F)cc3)C(C)C)c2=O)ccc2ccccc12 [Compound 338]
Ducksalad plant response rating (duck salad; [1]): 0
Ducksalad plant response rating (duck salad; [2]): 0
Ducksalad plant response rating (duck salad; [3]): 0
Ducksalad plant response rating (duck salad; [4]): 0
Rice plant response rating (rice; [1]): 0
Rice plant response rating (rice; [2]): 0
Rice plant response rating (rice; [3]): 0
Rice plant response rating (rice; [4]): 0
Plant response rating, Velvetleaf (velvetleaf; [5]): 0
Velvetleaf plant response rating (velvetleaf; [6]): 0
Velvetleaf plant response rating (0 to 10 scale) (velvetleaf; Preemergence, Rate 125 g/ha): 0
Velvetleaf plant response rating (velvetleaf; [7]): 0
Velvetleaf plant response rating (velvetleaf; [8]): 0
Velvetleaf plant response rating (velvetleaf; [9]): 0
Plant response rating, Velvetleaf (velvetleaf; [10]): 0
Plant response rating, Soybean (soybean; [5]): 1
Soybean plant response rating (soybean; [6]): 0
Soybean plant response rating (0 to 10 scale) (soybean; Preemergence, Rate 125 g/ha): 0
Soybean plant response rating (soybean; [7]): 0
Soybean plant response rating (soybean; [8]): 0
Soybean plant response rating (soybean; [9]): 1
Plant response rating, Soybean (soybean; [10]): 2
Plant response rating, Blackgrass (blackgrass; [5]): 0
Blackgrass plant response rating (blackgrass; [6]): 0
Blackgrass plant response rating (0 to 10 scale) (blackgrass; Preemergence, Rate 125 g/ha): 0
Blackgrass plant response rating (blackgrass; [7]): 0
Blackgrass plant response rating (blackgrass; [8]): 0
Blackgrass plant response rating (blackgrass; [9]): 0
Plant response rating, Blackgrass (blackgrass; [11]): 0
Plant response rating, Blackgrass (blackgrass; [10]): 0
Plant response rating, Corn (corn; [5]): 0
Corn plant response rating (corn; [6]): 0
Corn plant response rating (0 to 10 scale) (corn; Preemergence, Rate 125 g/ha): 0
Corn plant response rating (corn; [7]): 0
Corn plant response rating (corn; [8]): 0
Corn plant response rating (corn; [9]): 0
Plant response rating, Corn (corn; [10]): 0
Plant response rating, Sugarbeets (sugar beet; [5]): 0
Sugarbeets plant response rating (sugar beet; [6]): 0
Sugarbeets plant response rating (0 to 10 scale) (sugar beet; Preemergence, Rate 125 g/ha): 0
Sugarbeets plant response rating (sugar beet; [7]): 0
Sugarbeets plant response rating (sugar beet; [8]): 0
Sugarbeets plant response rating (sugar beet; [9]): 0
Plant response rating, Sugarbeets (sugar beet; [10]): 0
Plant response rating, Morningglory (morningglory; [5]): 0
Morningglory plant response rating (morningglory; [6]): 0
Morningglory plant response rating (0 to 10 scale) (morningglory; Preemergence, Rate 125 g/ha): 0
Morningglory plant response rating (morningglory; [7]): 0
Morningglory plant response rating (morningglory; [8]): 0
Morningglory plant response rating (morningglory; [9]): 0
Plant response rating, Morningglory (morningglory; [10]): 2
S. Flatsedge plant response rating (smallflower flatsedge; [1]): 0
S. Flatsedge plant response rating (smallflower flatsedge; [2]): 0
S. Flatsedge plant response rating (smallflower flatsedge; [3]): 0
S. Flatsedge plant response rating (smallflower flatsedge; [4]): 0
Plant response rating, Rape (rape; [5]): 0
Rape plant response rating (rape; [6]): 0
Rape plant response rating (0 to 10 scale) (rape; Preemergence, Rate 125 g/ha): 0
Rape plant response rating (rape; [7]): 0
Rape plant response rating (rape; [8]): 0
Rape plant response rating (rape; [9]): 0
Plant response rating, Rape (rape; [10]): 0
Plant response rating, B. signalgrass (surinam grass; [5]): 0
B. signalgrass plant response rating (surinam grass; [6]): 0
B. signalgrass plant response rating (0 to 10 scale, 0 is no effect, 10 is complete control) (surinam grass; Preemergence, Rate 125 g/ha): 0
B. signalgrass plant response rating (surinam grass; [7]): 0
B. signalgrass plant response rating (surinam grass; [8]): 0
B. signalgrass plant response rating (surinam grass; [9]): 0
Plant response rating, B. signalgrass (surinam grass; [11]): 0
Plant response rating, B. signalgrass (surinam grass; [10]): 0
Plant response rating, Giant foxtail (giant foxtail; [5]): 0
Giant foxtail plant response rating (giant foxtail; [6]): 0
Giant foxtail plant response rating (0 to 10 scale) (giant foxtail; Preemergence, Rate 125 g/ha): 0
Giant foxtail plant response rating (giant foxtail; [7]): 0
Giant foxtail plant response rating (giant foxtail; [8]): 9
Giant foxtail plant response rating (giant foxtail; [9]): 0
Plant response rating, Giant foxtail (giant foxtail; [10]): 0
Barnyardgrass plant response rating (bamyardgrass; [1]): 0
Barnyardgrass plant response rating (bamyardgrass; [2]): 0
Barnyardgrass plant response rating (bamyardgrass; [3]): 0
Barnyardgrass plant response rating (bamyardgrass; [4]): 9
Plant response rating, Bedstraw (bedstraw; [5]): 2
Bedstraw plant response rating (bedstraw; [6]): 0
Bedstraw plant response rating (0 to 10 scale) (bedstraw; Preemergence, Rate 125 g/ha): 0
Bedstraw plant response rating (bedstraw; [7]): 0
Bedstraw plant response rating (bedstraw; [8]): 0
Bedstraw plant response rating (bedstraw; [9]): 0
Plant response rating, Bedstraw (bedstraw; [11]): 2
Plant response rating, Bedstraw (bedstraw; [10]): 5
Plant response rating, Redroot pigweed (pigweed; [5]): 0
Redroot pigweed plant response rating (pigweed; [6]): 0
Redroot pigweed plant response rating (0 to 10 scale) (pigweed; Preemergence, Rate 125 g/ha): 0
Redroot pigweed plant response rating (pigweed; [7]): 0
Redroot pigweed plant response rating (pigweed; [8]): 0
Redroot pigweed plant response rating (pigweed; [9]): 0
Plant response rating, Redroot pigweed (pigweed; [10]): 0
Plant response rating, Nutsedge (purple nutsedge; [5]): 0
Nutsedge plant response rating (purple nutsedge; [6]): 0
Nutsedge plant response rating (0 to 10 scale) (purple nutsedge; Preemergence, Rate 125 g/ha): 0
Nutsedge plant response rating (purple nutsedge; [7]): 0
Nutsedge plant response rating (purple nutsedge; [8]): 0
Nutsedge plant response rating (purple nutsedge; [9]): 0
Plant response rating, Nutsedge (purple nutsedge; [10]): 0

Source: patent US6737383B1, “Herbicidal oxadiazolidines” (priority 1999, dated 2004)
